The source of these data is patent publication US9399646B2 (Genentech, Inc., priority 2010, dated 2016).

Like-named read-outs stand apart in the source and are kept apart here.

Holding throughout (format): cell-based
Assay [1] deals with MCF-7 cells. The assay can be described thus: Breast cancer cell viability assay (CellTiter-Glo, 5 days). As to conditions: 5 days' compound exposure; for IC50: Homo sapiens, MCF7, 120 h. Summed up:
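Eleven-point semilog compound series, final 0.3-0.000003 μM, added to overnight-adhered MCF-7 cells (320/well; RPMI, 10% FBS, 20 mM HEPES) for 5 days. Viability read by CellTiter-Glo luminescence, background from medium without cells subtracted, expressed relative to untreated cells.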

The target in assay [2] is T1, ER-α in MCF-7 cells (Homo sapiens, UniProt P03372).
T1 sequence (P03372 1-595): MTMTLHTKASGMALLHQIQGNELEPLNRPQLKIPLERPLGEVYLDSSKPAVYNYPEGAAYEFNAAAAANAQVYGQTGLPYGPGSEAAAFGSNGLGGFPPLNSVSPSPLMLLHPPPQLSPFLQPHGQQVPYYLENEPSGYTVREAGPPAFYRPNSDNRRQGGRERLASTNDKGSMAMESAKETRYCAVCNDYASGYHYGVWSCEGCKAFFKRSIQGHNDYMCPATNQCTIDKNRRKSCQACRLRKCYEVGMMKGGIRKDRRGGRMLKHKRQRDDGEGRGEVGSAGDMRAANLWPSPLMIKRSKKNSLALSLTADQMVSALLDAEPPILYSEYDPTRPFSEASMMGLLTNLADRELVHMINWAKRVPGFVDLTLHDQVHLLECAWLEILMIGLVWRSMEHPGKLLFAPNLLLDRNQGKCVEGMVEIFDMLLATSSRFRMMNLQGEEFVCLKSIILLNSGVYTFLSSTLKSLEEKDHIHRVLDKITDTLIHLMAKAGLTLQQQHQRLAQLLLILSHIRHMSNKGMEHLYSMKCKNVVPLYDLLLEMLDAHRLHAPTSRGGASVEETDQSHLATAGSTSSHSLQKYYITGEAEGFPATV
The assay can be described thus: Breast cancer cell ER-α in cell western assay (SP1). On the set-up: MCF-7 cells were adjusted to a concentration of 200,000 cells per mL; endogenous in cells; host or cells: MCF-7. As to conditions: 4 or 24 hr post compound addition; for Emax: MCF7, SP1 antibody, read-out: ER-α In Cell Western Assay (SP1) Max Response; for DC50: SP1 antibody, read-out: ER-α In Cell Western Assay (SP1) IC50. The protocol:
MCF-7 cells were adjusted to a concentration of 200,000 cells per mL in RPMI containing 10% charcoal-stripped FBS and 20 mM HEPES. 16 microliters of the cell suspension (3200 cells) was added to each well of a poly-D-lysine 384 well plate, and the cells were incubated overnight to allow the cells to adhere. The following day an eleven point, serial semilog dilution of each compound was added to the cells in 16 μL at a final concentration ranging from 0.3-0.000003 μM. At 4 or 24 hr post compound addition, the cells were fixed (10% formalin in PBS) for 20 minutes. Cells were permeablized in PBS 0.1% Triton and blocked with LICOR blocking buffer (50 μl/well, 90°). The wells were then incubated overnight at 4° C. with SP1 rabbit monoclonal Ab (Thermo Scientific) diluted 1:1000 in LICOR blocking buffer/0.1% Tween-20. Wells which were treated with blocking buffer with Tween but no antibody were used as a background control. Wells were washed with 0.1% Tween-20/PBS and then incubated in goat anti-rabbit IRDye™ 800CW (LICOR Inc.; 1:1000) and DRAQ5 DNA dye (1:2000 for 2 mM stock) diluted in LICOR blocking buffer containing 0.1% Tween-20 and 0.01% SDS for 60 minutes. Cells were washed (50 μl/well, 5′ each) in 0.1% Tween-20/PBS. Plates were scanned on a LICOR Odyssey infrared imaging system. Integrated intensities in the 800 nm channel and 700 nm channel were measured to determine levels of ER and DNA respectively. Percent ER levels were determined as follows: (Integrated intensity 800 nm sample/integrated intensity 700 nm sample)/(Integrated intensity 800 nm untreated cells/integrated intensity 700 nm untreated cells)×100=% ER levels.

The target of assay [3] is T1, ER-α in MCF-7 cells. The description is as above. Also on record: endogenous in cells; host or cells: MCF-7. As to conditions: 4 or 24 hr post compound addition; for Emax: MCF7, SP1 antibody, read-out: ER-α In Cell Western Assay (SP1) Max Response; for DC50: SP1 antibody, read-out: ER-α In Cell Western Assay (SP1) IC50. The method in brief: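 Percent remaining ER: SP1 immunofluorescence normalized to DRAQ5 nuclear stain, compared with untreated controls. Treatment lasted 4 or 24 hr across 0.3–0.000003 μM final in MCF-7.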

By IC50 is commonly meant the concentration that inhibits the measured activity by half. High values mean weaker potency, low ones greater potency.

Consider `CC/C(=C(/c1ccc(/C=C/C(=O)O)cc1)c1cn[nH]c1)c1ccccc1` [Compound 150], for which, in assay [1], the “MCF7 Viability Assay Max Response” value is given as “+ (+ = a single % value < 40%)” and the IC50 is greater than 100 nM. In addition, in assay [2], the Emax is no less than 40% and the DC50 was greater than 100 nM.

Take `O=C(O)/C=C/c1ccc(/C(=C(\c2ccncc2Cl)C2CCC2)c2ccc3scnc3c2)cc1` [Compound 285]: in assay [1], the “MCF7 Viability Assay Max Response” value is listed as “++ (++ = a single % value ≧ 40%)” and the IC50 was no more than 100 nM. In assay [2], the Emax was no less than 40% and the DC50 is no more than 100 nM.

Turning to `CC/C(=C(/c1ccc(/C=C/c2noc(=S)[nH]2)cc1)c1ccc2[nH]ncc2c1)c1ccc(F)cc1Cl` [Compound 441, 3-((E)-4-((E)-2-(2-Chloro-4-fluorophenyl)-1-(1H-indazol-5-yl)but-1-en-1-yl)styryl)-1,2,4-oxadiazole-5(4H)-thione], in assay [1], the “MCF7 Viability Assay Max Response” value is on record as “+ (+ = a single % value < 40%)” and the IC50 was no more than 100 nM. Moreover, in assay [3], the Emax was no less than 40% and the DC50 is no more than 100 nM.

Consider `CC/C(=C(/c1ccc(/C=C/c2nn[nH]n2)cc1)c1ccc2[nH]ncc2c1)c1ccccc1` [Compound 442, 5-((E)-1-(4-((E)-2-(2H-Tetrazol-5-yl)vinyl)phenyl)-2-phenylbut-1-en-1-yl)-1H-indazole], for which, in assay [1], the “MCF7 Viability Assay Max Response” value is on record as “++ (++ = a single % value ≧ 40%)” and the IC50 is no more than 100 nM. In assay [3], the Emax was no less than 40% and the DC50 is no more than 100 nM.

With `CC/C(=C(/c1ccc(/C=C/c2nn[nH]n2)cc1)c1ccc2[nH]ncc2c1)c1ccccc1Cl` [Compound 443, 5-((E)-1-(4-((E)-2-(2H-Tetrazol-5-yl)vinyl)phenyl)-2-(2-chlorophenyl)but-1-en-1-yl)-1H-indazole], in assay [1], the “MCF7 Viability Assay Max Response” value is given as “++ (++ = a single % value ≧ 40%)” and the IC50 was no more than 100 nM. In addition, in assay [3], the Emax is no less than 40% and the DC50 is no more than 100 nM.

With `CC/C(=C(/c1ccc(/C=C/c2nn[nH]n2)cc1)c1ccc2scnc2c1)c1ccccc1` [Compound 444, 5-((E)-1-(4-((E)-2-(2H-Tetrazol-5-yl)vinyl)phenyl)-2-phenylbut-1-en-1-yl)benzo[d]thiazole], in assay [1], the “MCF7 Viability Assay Max Response” value is listed as “++ (++ = a single % value ≧ 40%)” and the IC50 is greater than 100 nM. For the same molecule, in assay [3], the Emax is no less than 40% and the DC50 was no more than 100 nM.

`CC/C(=C(/c1ccc(/C=C/c2nn[nH]n2)cc1)c1ccc2scnc2c1)c1ccc(F)cc1Cl` [Compound 445, 5-((E)-1-(4-((E)-2-(2H-Tetrazol-5-yl)vinyl)phenyl)-2-(2-chloro-4-fluorophenyl)but-1-en-1-yl)benzo[d]thiazole]: in assay [1], the “MCF7 Viability Assay Max Response” value is “++ (++ = a single % value ≧ 40%)” and the IC50 is no more than 100 nM. Besides, in assay [3], the Emax was no less than 40% and the DC50 is no more than 100 nM.

As to `CC/C(=C(/c1ccc(/C=C/c2nn[nH]n2)cc1)c1ccc2scnc2c1)c1ccncc1Cl` [Compound 446, 5-((E)-1-(4-((E)-2-(2H-Tetrazol-5-yl)vinyl)phenyl)-2-(3-chloropyridin-4-yl)but-1-en-1-yl)benzo[d]thiazole], in assay [1], the “MCF7 Viability Assay Max Response” value is given as “++ (++ = a single % value ≧ 40%)” and the IC50 was no more than 100 nM. Moreover, in assay [3], the Emax was no less than 40% and the DC50 was no more than 100 nM.

With `CC/C(=C(/c1ccc(/C=C/c2nn[nH]n2)cc1)c1ccc2scnc2c1)c1cscc1C` [Compound 447, 5-((E)-1-(4-((E)-2-(2H-Tetrazol-5-yl)vinyl)phenyl)-2-(4-methylthiophen-3-yl)but-1-en-1-yl)benzo[d]thiazole], in assay [1], the “MCF7 Viability Assay Max Response” value is “++ (++ = a single % value ≧ 40%)” and the IC50 is no more than 100 nM. In addition, in assay [3], the Emax was no less than 40% and the DC50 was no more than 100 nM.

With `Cc1cscc1/C(=C(\c1ccc(/C=C/c2nn[nH]n2)cc1)c1ccc2scnc2c1)C1CCC1` [Compound 448, 5-((E)-1-(4-((E)-2-(2H-Tetrazol-5-yl)vinyl)phenyl)-2-cyclobutyl-2-(4-methylthiophen-3-yl)vinyl)benzo[d]thiazole], in assay [1], the “MCF7 Viability Assay Max Response” value is “++ (++ = a single % value ≧ 40%)” and the IC50 was no more than 100 nM. In addition, in assay [3], the Emax is no less than 40% and the DC50 was no more than 100 nM.

As to `CC/C(=C(/c1ccc2cc(C(=O)O)ccc2c1)c1ccc2[nH]ncc2c1)c1ccccc1` [Compound 449, (E)-6-(1-(1H-Indazol-5-yl)-2-phenylbut-1-en-1-yl)-2-naphthoic acid], in assay [1], the “MCF7 Viability Assay Max Response” value was “++ (++ = a single % value ≧ 40%)” and the IC50 is no more than 100 nM. In assay [3], the Emax was no less than 40% and the DC50 was no more than 100 nM.

As for `CC/C(=C(/c1ccc(/C=C/C(=O)O)cc1)c1coc2c(O)cccc12)c1ccc(F)cc1Cl` [Compound 450, (E)-3-(4-((E)-2-(2-Chloro-4-fluorophenyl)-1-(7-hydroxybenzofuran-3-yl)but-1-en-1-yl)phenyl)acrylic acid], in assay [1], the “MCF7 Viability Assay Max Response” value is recorded as “++ (++ = a single % value ≧ 40%)” and the IC50 is no more than 100 nM. Further, in assay [3], the Emax was no less than 40% and the DC50 was no more than 100 nM.

As to `CC/C(=C(/c1ccc(/C=C/C(=O)O)cc1)c1coc2c(O)cccc12)c1ccccc1` [Compound 451, (E)-3-(4-((E)-1-(7-Hydroxybenzofuran-3-yl)-2-phenylbut-1-en-1-yl)phenyl)acrylic acid], in assay [1], the “MCF7 Viability Assay Max Response” value is given as “++ (++ = a single % value ≧ 40%)” and the IC50 is no more than 100 nM. In assay [3], the Emax was no less than 40% and the DC50 is no more than 100 nM.

Turning to `CC/C(=C(/c1ccc(/C=C/S(N)(=O)=O)cc1)c1ccc2[nH]ncc2c1)c1ccccc1` [Compound 452, (E)-2-(4-((E)-1-(1H-Indazol-5-yl)-2-phenylbut-1-en-1-yl)phenyl)ethenesulfonamide], in assay [1], the “MCF7 Viability Assay Max Response” value is “++ (++ = a single % value ≧ 40%)” and the IC50 is no more than 100 nM. Also, in assay [3], the Emax was no less than 40% and the DC50 is no more than 100 nM.

In the case of `CC/C(=C(/c1ccc(/C=C/C(=O)O)cc1)c1cc(F)c2[nH]ncc2c1)c1cc[n+]([O-])cc1Cl` [Compound 453, 4-((E)-1-(4-((E)-2-Carboxyvinyl)phenyl)-1-(7-fluoro-1H-indazol-5-yl)but-1-en-2-yl)-3-chloropyridine-1-oxide], in assay [1], the “MCF7 Viability Assay Max Response” value is “++ (++ = a single % value ≧ 40%)” and the IC50 is greater than 100 nM. Moreover, in assay [3], the Emax was no less than 40% and the DC50 was greater than 100 nM.
